Assay results as given in ChEMBL document CHEMBL1201862, “PubChem BioAssay data set” (2004).
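Each compound was tested at five concentrations against cells in 96-well plates for 48 hours. At the GI50, growth is halved.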 Activity calls are given as the source filed them. No stated cut-off is given here; in the data, active = GI50 up to about 1.1 µM and inactive = higher.

Key:
Assay in all cases: NCI tumour cell line growth inhibition, 48 h
[1] = test system: 786-0
[2] = test system: A549
[3] = test system: ACHN
[4] = test system: BT-549
[5] = test system: CAKI-1
[6] = test system: COLO 205
[7] = test system: DU-145
[8] = test system: EKVX
[9] = test system: HCT-116
[10] = test system: HCT-15
[11] = test system: HL-60
[12] = test system: HOP-62
[13] = test system: HOP-92
[14] = test system: HT-29
[15] = test system: Hs-578T
[16] = test system: K562
[17] = test system: KM12
[18] = test system: M14
[19] = test system: MCF7
[20] = test system: MDA-MB-231
[21] = test system: MDA-MB-435
[22] = test system: MOLT-4
[23] = test system: Malme-3M
[24] = test system: NCI-H226
[25] = test system: NCI-H23
[26] = test system: NCI-H460
[27] = test system: NCI/ADR-RES
[28] = test system: OVCAR-3
[29] = test system: OVCAR-4
[30] = test system: OVCAR-5
[31] = test system: OVCAR-8
[32] = test system: PC-3
[33] = test system: RXF 393
[34] = test system: SF-268
[35] = test system: SF-295
[36] = test system: SF-539
[37] = test system: SK-MEL-28
[38] = test system: SK-MEL-5
[39] = test system: SK-OV-3
[40] = test system: SN12C
[41] = test system: SNB-19
[42] = test system: SNB-75
[43] = test system: SR
[44] = test system: SW-620
[45] = test system: T47D
[46] = test system: TK-10
[47] = test system: U-251
[48] = test system: UACC-257
[49] = test system: UACC-62
[50] = test system: A498
[51] = test system: CCRF-CEM
[52] = test system: HCC 2998
[53] = test system: IGROV-1
[54] = test system: LOX IMVI
[55] = test system: NCI-H522
[56] = test system: RPMI-8226
[57] = test system: SK-MEL-2
[58] = test system: UO-31
[59] = test system: MDA-N

SMILES: Cc1cc(NC(=S)SCc2ccc(F)cc2)c([N+](=O)[O-])cc1C
- GI50 [1]: 33.3 µM (inactive)
- GI50 [2]: 27.7 µM (inactive)
- GI50 [3]: 32.4 µM (inactive)
- GI50 [4]: 28.2 µM (inactive)
- GI50 [5]: 47.2 µM (inactive)
- GI50 [6]: 19.3 µM (inactive)
- GI50 [7]: 32.2 µM (inactive)
- GI50 [8]: 39.6 µM (inactive)
- GI50 [9]: 26.2 µM (inactive)
- GI50 [10]: 18.3 µM
- GI50 [11]: 16.9 µM (inactive)
- GI50 [12]: 24.7 µM (inactive)
- GI50 [13]: 18.4 µM (inactive)
- GI50 [14]: 13.6 µM (inactive)
- GI50 [15]: 13.4 µM (inactive)
- GI50 [16]: 32.3 µM (inactive)
- GI50 [17]: 19.9 µM (inactive)
- GI50 [18]: 35.5 µM (inactive)
- GI50 [19]: 42.1 µM (inactive)
- GI50 [20]: 14.6 µM (inactive)
- GI50 [21]: 26.7 µM (inactive)
- GI50 [22]: 3.29 µM (inactive)
- GI50 [23]: 25.6 µM (inactive)
- GI50 [24]: 16.6 µM (inactive)
- GI50 [25]: 29.8 µM (inactive)
- GI50 [26]: 36.7 µM (inactive)
- GI50 [27]: 25.8 µM (inactive)
- GI50 [28]: 22.6 µM (inactive)
- GI50 [29]: 30.9 µM (inactive)
- GI50 [30]: 21.6 µM (inactive)
- GI50 [31]: 19 µM (inactive)
- GI50 [32]: 42.2 µM (inactive)
- GI50 [33]: 22.9 µM (inactive)
- GI50 [34]: 31.5 µM (inactive)
- GI50 [35]: 34.5 µM (inactive)
- GI50 [36]: 23.8 µM (inactive)
- GI50 [37]: 39.1 µM (inactive)
- GI50 [38]: 8.71 µM (inactive)
- GI50 [39]: 32.3 µM (inactive)
- GI50 [40]: 19.4 µM (inactive)
- GI50 [41]: 23.2 µM (inactive)
- GI50 [42]: 46.9 µM (inactive)
- GI50 [43]: 20.3 µM (inactive)
- GI50 [44]: 27.5 µM (inactive)
- GI50 [45]: 48.8 µM (inactive)
- GI50 [46]: 24.2 µM (inactive)
- GI50 [47]: 22.4 µM (inactive)
- GI50 [48]: 21 µM (inactive)
- GI50 [49]: 15 µM (inactive)

SMILES: COc1ccc(/C=C(/c2ccc(OC)cc2)c2c(Cl)cc(Cl)c(/C(=C\c3ccc(OC)cc3)c3ccc(OC)cc3)c2/N=N/c2ccccc2)cc1
- GI50 [1]: > 100 µM (inactive)
- GI50 [50]: 98.2 µM (inactive)
- GI50 [2]: > 100 µM (inactive)
- GI50 [3]: 72.4 µM (inactive)
- GI50 [4]: > 100 µM (inactive)
- GI50 [5]: > 100 µM (inactive)
- GI50 [51]: 50.1 µM (inactive)
- GI50 [6]: > 100 µM (inactive)
- GI50 [7]: > 100 µM (inactive)
- GI50 [8]: > 100 µM (inactive)
- GI50 [52]: > 100 µM (inactive)
- GI50 [9]: > 100 µM (inactive)
- GI50 [10]: > 100 µM
- GI50 [11]: > 100 µM (inactive)
- GI50 [12]: > 100 µM (inactive)
- GI50 [13]: > 100 µM (inactive)
- GI50 [14]: > 100 µM (inactive)
- GI50 [15]: > 100 µM (inactive)
- GI50 [53]: > 100 µM (inactive)
- GI50 [16]: 45.1 µM (inactive)
- GI50 [17]: > 100 µM (inactive)
- GI50 [54]: > 100 µM (inactive)
- GI50 [18]: > 100 µM (inactive)
- GI50 [19]: 62.1 µM (inactive)
- GI50 [20]: > 100 µM (inactive)
- GI50 [21]: > 100 µM (inactive)
- GI50 [22]: 88.7 µM (inactive)
- GI50 [23]: > 100 µM (inactive)
- GI50 [25]: > 100 µM (inactive)
- GI50 [26]: > 100 µM (inactive)
- GI50 [55]: > 100 µM (inactive)
- GI50 [27]: > 100 µM (inactive)
- GI50 [28]: > 100 µM (inactive)
- GI50 [29]: > 100 µM (inactive)
- GI50 [30]: > 100 µM (inactive)
- GI50 [31]: > 100 µM (inactive)
- GI50 [32]: > 100 µM (inactive)
- GI50 [56]: > 100 µM (inactive)
- GI50 [33]: > 100 µM (inactive)
- GI50 [34]: > 100 µM (inactive)
- GI50 [35]: > 100 µM (inactive)
- GI50 [36]: 34.4 µM (inactive)
- GI50 [37]: > 100 µM (inactive)
- GI50 [57]: > 100 µM (inactive)
- GI50 [38]: > 100 µM (inactive)
- GI50 [39]: > 100 µM (inactive)
- GI50 [40]: > 100 µM (inactive)
- GI50 [41]: > 100 µM (inactive)
- GI50 [42]: > 100 µM (inactive)
- GI50 [44]: > 100 µM (inactive)
- GI50 [45]: > 100 µM (inactive)
- GI50 [46]: > 100 µM (inactive)
- GI50 [47]: 66.4 µM (inactive)
- GI50 [48]: 39.7 µM (inactive)
- GI50 [49]: > 100 µM (inactive)
- GI50 [58]: > 100 µM (inactive)

SMILES: COc1ccccc1Cc1ccc(C2C=CC3(CC(=O)C=C3C)C(=O)C2)o1 (stereo not given)
- GI50 [1]: 20.2 µM (inactive)
- GI50 [50]: 20 µM (inactive)
- GI50 [2]: 33.9 µM (inactive)
- GI50 [3]: 33 µM (inactive)
- GI50 [4]: 20.6 µM (inactive)
- GI50 [5]: 29.6 µM (inactive)
- GI50 [6]: 23.2 µM (inactive)
- GI50 [7]: 29.4 µM (inactive)
- GI50 [8]: 34.8 µM (inactive)
- GI50 [52]: 28.1 µM (inactive)
- GI50 [9]: 27.2 µM (inactive)
- GI50 [10]: 25.6 µM
- GI50 [11]: 17.7 µM (inactive)
- GI50 [12]: 15 µM (inactive)
- GI50 [13]: 20.5 µM (inactive)
- GI50 [14]: 35.3 µM (inactive)
- GI50 [15]: 20.2 µM (inactive)
- GI50 [53]: 29.2 µM (inactive)
- GI50 [16]: 20 µM (inactive)
- GI50 [17]: 29 µM (inactive)
- GI50 [54]: 17.3 µM (inactive)
- GI50 [18]: 32.1 µM (inactive)
- GI50 [19]: 17.1 µM (inactive)
- GI50 [20]: 21 µM (inactive)
- GI50 [21]: 19.4 µM (inactive)
- GI50 [59]: 18.5 µM (inactive)
- GI50 [22]: 16 µM (inactive)
- GI50 [23]: 17.9 µM (inactive)
- GI50 [24]: 25.6 µM (inactive)
- GI50 [25]: 21 µM (inactive)
- GI50 [26]: 30.5 µM (inactive)
- GI50 [55]: 16 µM (inactive)
- GI50 [27]: 24.7 µM (inactive)
- GI50 [28]: 10.2 µM (inactive)
- GI50 [29]: 31 µM (inactive)
- GI50 [30]: 50.8 µM (inactive)
- GI50 [31]: 17.1 µM (inactive)
- GI50 [32]: 16.1 µM (inactive)
- GI50 [56]: 17.4 µM (inactive)
- GI50 [33]: 17.4 µM (inactive)
- GI50 [34]: 20.3 µM (inactive)
- GI50 [35]: 22.1 µM (inactive)
- GI50 [36]: 18.6 µM (inactive)
- GI50 [37]: 34.4 µM (inactive)
- GI50 [57]: 14.7 µM (inactive)
- GI50 [38]: 15.6 µM (inactive)
- GI50 [40]: 22 µM (inactive)
- GI50 [41]: 47.2 µM (inactive)
- GI50 [43]: 18.4 µM (inactive)
- GI50 [44]: 18.5 µM (inactive)
- GI50 [46]: 39.5 µM (inactive)
- GI50 [47]: 16.3 µM (inactive)
- GI50 [48]: 22.4 µM (inactive)
- GI50 [49]: 13.9 µM (inactive)
- GI50 [58]: 29.1 µM (inactive)
